Columns and labels:
L02 = assay: Cytotoxicity against human L-02 cells incubated for 24 hrs by MTT assay; assay type: cell-based; details: L02, 24 h
[1] = molecular target: NACHT, LRR and PYD domains-containing protein 3 (Mus musculus) (UniProt Q8R4B8); assay: Inhibition of NLRP3 inflammasome activation in LPS-stimulated mouse J774A.1 cells assessed as inhibition of cell pyrolysis at 10 uM incubated for 1 hr followed by ATP addition and measured after 30 mins by Hoechst 33342/propidium iodide staining based high content screening method relative to control; details: J774.A1, time 1.5 hrs
Chain of NACHT, LRR and PYD domains-containing protein 3 (Mus musculus) (Q8R4B8 whole entry, the tested form may be a part): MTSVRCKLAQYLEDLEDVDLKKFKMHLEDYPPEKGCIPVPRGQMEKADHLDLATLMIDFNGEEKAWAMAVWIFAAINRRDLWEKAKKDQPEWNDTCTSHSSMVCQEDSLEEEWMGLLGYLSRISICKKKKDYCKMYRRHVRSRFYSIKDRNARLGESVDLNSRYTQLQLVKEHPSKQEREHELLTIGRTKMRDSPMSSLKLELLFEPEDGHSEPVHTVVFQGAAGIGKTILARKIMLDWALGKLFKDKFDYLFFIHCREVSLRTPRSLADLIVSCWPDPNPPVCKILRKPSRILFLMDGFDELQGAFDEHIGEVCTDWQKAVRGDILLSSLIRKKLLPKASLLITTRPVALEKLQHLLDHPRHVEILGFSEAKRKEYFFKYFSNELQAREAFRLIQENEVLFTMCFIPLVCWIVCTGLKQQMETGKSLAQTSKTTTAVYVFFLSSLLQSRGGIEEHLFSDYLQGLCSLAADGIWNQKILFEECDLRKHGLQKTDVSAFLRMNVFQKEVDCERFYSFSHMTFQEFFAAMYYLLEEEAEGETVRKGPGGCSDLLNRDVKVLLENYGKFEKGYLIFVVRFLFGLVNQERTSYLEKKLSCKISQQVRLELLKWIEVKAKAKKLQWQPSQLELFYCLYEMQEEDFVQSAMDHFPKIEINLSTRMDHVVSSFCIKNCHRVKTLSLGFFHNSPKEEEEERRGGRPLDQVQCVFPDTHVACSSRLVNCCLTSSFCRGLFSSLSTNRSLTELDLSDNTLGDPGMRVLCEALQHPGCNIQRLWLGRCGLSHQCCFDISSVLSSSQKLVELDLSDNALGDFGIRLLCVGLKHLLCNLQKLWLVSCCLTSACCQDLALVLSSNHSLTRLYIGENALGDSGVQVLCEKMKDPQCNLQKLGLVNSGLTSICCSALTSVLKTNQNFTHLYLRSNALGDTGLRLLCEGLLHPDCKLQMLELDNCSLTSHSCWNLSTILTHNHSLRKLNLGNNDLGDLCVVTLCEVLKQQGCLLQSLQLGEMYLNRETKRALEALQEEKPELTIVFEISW

[2] = molecular target: NACHT, LRR and PYD domains-containing protein 3 (Mus musculus, UniProt Q8R4B8); assay: Inhibition of NLRP3 inflammasome activation in LPS-stimulated mouse bone marrow-derived macrophages assessed as reduction in IL-1beta secretion preincubated for 30 mins followed by nigericin addition and measured after 30 mins by ELISA; assay type: tissue-based, Macrophage
Chain of NACHT, LRR and PYD domains-containing protein 3 (Q8R4B8 whole entry, the tested form may be a part): as above

[3] = molecular target: NACHT, LRR and PYD domains-containing protein 3 (Mus musculus) (UniProt Q8R4B8); assay: Inhibition of NLRP3 inflammasome activation in LPS-stimulated mouse J774A.1 cells assessed as inhibition of cell pyrolysis at 20 uM incubated for 1 hr followed by ATP addition and measured after 30 mins by Hoechst 33342/propidium iodide staining based high content screening method relative to control; details: J774.A1, time 1.5 hrs

Compound	IC50 (L02)	inhibition [1]	IC50 [2]	inhibition [3]
COc1cc(/C=C/c2ccc(NC(=O)C3CCCC3)cc2)c(/C=C/[N+](=O)[O-])c(OC)c1	> 100 µM	45.7%		
COc1cc(/C=C/c2ccc(NC(=O)CCl)cc2)c(/C=C/[N+](=O)[O-])c(OC)c1	42.6 µM	90%		
COc1cc(/C=C/c2ccc(NC(=O)CC(C)(C)C)cc2)c(/C=C/[N+](=O)[O-])c(OC)c1	> 100 µM	9.89%		
COc1cc(/C=C/c2ccc(NC(=O)CCCl)cc2)c(/C=C/[N+](=O)[O-])c(OC)c1	> 100 µM	70.5%	0.76 µM	
COc1cc(/C=C/c2ccc(OCC(=O)NCc3ccccc3)cc2)c(-c2cnn[nH]2)c(OC)c1	> 100 µM	19.4%	> 10 µM	31.6%
COc1ccc(CNC(=O)COc2ccc(/C=C/c3cc(OC)cc(OC)c3/C=C/[N+](=O)[O-])cc2)cc1	> 100 µM	11.8%		23.1%
C=CC(=O)Nc1ccc(/C=C/c2cc(OC)cc(OC)c2/C=C/[N+](=O)[O-])cc1	> 100 µM	71.2%		
COc1cc(/C=C/c2ccc(OCC(=O)Nc3ccc(Cl)cc3)cc2)c(/C=C/[N+](=O)[O-])c(OC)c1	> 100 µM	22.1%		40.1%
COc1cc(/C=C/c2ccc(OCC(=O)NCc3ccccc3)cc2)cc(OC)c1	> 100 µM	9.65%		15.4%
COc1cc(/C=C/c2ccc(OCC(=O)NCc3ccc(Br)cc3)cc2)c(/C=C/[N+](=O)[O-])c(OC)c1	> 100 µM	24%	9.68 µM	34.9%
COc1cc(/C=C/c2ccc(NC(=O)C(C)C)cc2)c(/C=C/[N+](=O)[O-])c(OC)c1	> 100 µM	69%		
COc1cc(/C=C/c2ccc(NC(=O)C3CCCCC3)cc2)c(/C=C/[N+](=O)[O-])c(OC)c1	> 100 µM	28.7%	> 10 µM	
COc1cc(/C=C/c2ccc(OCc3ccc(C(F)(F)F)cc3)cc2)c(-c2cnn[nH]2)c(OC)c1	> 100 µM			3.25%
COc1cc(/C=C/c2ccc(OCC(=O)NCc3ccccc3)cc2)c(/C=C/[N+](=O)[O-])c(OC)c1	> 100 µM	27.9%		57.9%
COc1cc(/C=C/c2ccc(OCc3ccc(C(F)(F)F)cc3)cc2)c(/C=C/[N+](=O)[O-])c(OC)c1	> 100 µM	17.9%		23.7%
C=CCCCOc1ccc(/C=C/c2cc(OC)cc(OC)c2)cc1	> 100 µM	11.1%		12.1%
COc1cc(/C=C/c2ccc(OCC(=O)NCc3ccc(Cl)cc3)cc2)c(/C=C/[N+](=O)[O-])c(OC)c1	> 100 µM	30.7%		49.6%
COCCOc1ccc(/C=C/c2cc(OC)cc(OC)c2-c2cnn[nH]2)cc1	94.5 µM	11.3%		26.9%
COc1cc(/C=C/c2ccc(OCC(=O)NCc3ccc(C)cc3)cc2)c(/C=C/[N+](=O)[O-])c(OC)c1	> 100 µM	24.1%		31.9%
COc1cc(NC(=O)COc2ccc(/C=C/c3cc(OC)cc(OC)c3/C=C/[N+](=O)[O-])cc2)cc(OC)c1	> 100 µM	20.1%		39.8%
COc1cc(/C=C/c2ccc(OCC(=O)Nc3ccc(Br)cc3)cc2)c(/C=C/[N+](=O)[O-])c(OC)c1	> 100 µM	9.56%		26.2%
CCCCNC(=O)COc1ccc(/C=C/c2cc(OC)cc(OC)c2/C=C/[N+](=O)[O-])cc1	> 100 µM	40.9%	7.18 µM	70.1%
COCC(=O)Nc1ccc(/C=C/c2cc(OC)cc(OC)c2/C=C/[N+](=O)[O-])cc1	> 100 µM	60%		
C/C=C/C(=O)Nc1ccc(/C=C/c2cc(OC)cc(OC)c2/C=C/[N+](=O)[O-])cc1	> 100 µM	60.7%		

Compound	IC50 (L02)	inhibition [1]	IC50 [2]	inhibition [3]
COc1cc(/C=C/c2ccc(OCC(=O)NCCc3ccccc3)cc2)c(/C=C/[N+](=O)[O-])c(OC)c1	> 100 µM	26.2%		46.2%
O=[N+]([O-])/C=C/c1ccc2c(c1)OCO2	41.1 µM	70.6%	2.31 µM	89.2%
COc1cc(/C=C/c2ccc(OCC(=O)NC3CCCCC3)cc2)c(/C=C/[N+](=O)[O-])c(OC)c1	> 100 µM	25.6%		41.8%
COCCCOc1ccc(/C=C/c2cc(OC)cc(OC)c2/C=C/[N+](=O)[O-])cc1	> 100 µM	43.2%		53.7%
COc1cc(/C=C/c2ccc(OCC(=O)NC3CCN(C(=O)OC(C)(C)C)CC3)cc2)c(/C=C/[N+](=O)[O-])c(OC)c1	> 100 µM	33%		42.3%
COc1ccc(NC(=O)COc2ccc(/C=C/c3cc(OC)cc(OC)c3/C=C/[N+](=O)[O-])cc2)cc1	> 100 µM	12.9%		15.1%
COc1cc(/C=C/c2ccc(OCC(=O)NCc3ccc(C#N)cc3)cc2)c(/C=C/[N+](=O)[O-])c(OC)c1	> 100 µM	34.4%		59.9%
COc1cc(/C=C/c2ccc(OCC(=O)Nc3ccc(F)cc3)cc2)c(/C=C/[N+](=O)[O-])c(OC)c1	> 100 µM	40.7%		49.6%
CCCCC(=O)Nc1ccc(/C=C/c2cc(OC)cc(OC)c2/C=C/[N+](=O)[O-])cc1	> 100 µM	36%		
CCCC(C)C(=O)Nc1ccc(/C=C/c2cc(OC)cc(OC)c2/C=C/[N+](=O)[O-])cc1 (stereo not drawn)	> 100 µM	41%		
CCC(=O)Nc1ccc(/C=C/c2cc(OC)cc(OC)c2/C=C/[N+](=O)[O-])cc1	> 100 µM	50.7%		
C=C1C(=O)[C@]23[C@H](O)[C@H]1CC[C@H]2[C@@]12CO[C@]3(O)[C@@H](O)[C@@H]1C(C)(C)CC[C@@H]2O [ORIDONIN]	38.2 µM	69.5%	0.81 µM	83.3%
CCCC(=O)Nc1ccc(/C=C/c2cc(OC)cc(OC)c2/C=C/[N+](=O)[O-])cc1	> 100 µM	48.9%		
COc1cc(/C=C/c2ccc(NC(=O)COC(C)=O)cc2)c(/C=C/[N+](=O)[O-])c(OC)c1	58.7 µM	61%		
COc1cc(/C=C/c2ccc(OCc3ccc(C(F)(F)F)cc3)cc2)cc(OC)c1	> 100 µM	6.32%	> 10 µM	8.51%
COCCCOc1ccc(/C=C/c2cc(OC)cc(OC)c2)cc1	> 100 µM	17.1%		20.2%
COc1cc(/C=C/c2ccc(NC(C)=O)cc2)c(/C=C/[N+](=O)[O-])c(OC)c1	> 100 µM	56.2%		
COc1cc(/C=C/c2ccc(NC(=O)C3CCC3)cc2)c(/C=C/[N+](=O)[O-])c(OC)c1	> 100 µM	55.6%	1.41 µM	
COc1cc(/C=C/c2ccc(OCC(=O)NCC3CCOCC3)cc2)c(/C=C/[N+](=O)[O-])c(OC)c1	> 100 µM	15.3%		25.3%
C=CCCCOc1ccc(/C=C/c2cc(OC)cc(OC)c2/C=C/[N+](=O)[O-])cc1	> 100 µM	26.8%		33.5%
COCCOc1ccc(/C=C/c2cc(OC)cc(OC)c2/C=C/[N+](=O)[O-])cc1	> 100 µM	34.6%		40.2%
COCCOc1ccc(/C=C/c2cc(OC)cc(OC)c2)cc1	> 100 µM	25.7%		32.3%
COc1cc(/C=C/c2ccc(NC(=O)OC(C)(C)C)cc2)c(/C=C/[N+](=O)[O-])c(OC)c1	> 100 µM	24%		
C=CCCCOc1ccc(/C=C/c2cc(OC)cc(OC)c2-c2cnn[nH]2)cc1	> 100 µM			

Source: ChEMBL document CHEMBL4831528, “Discovery of Novel Pterostilbene-Based Derivatives as Potent and Orally Active NLRP3 Inflammasome Inhibitors with Inflammatory Activity for Colitis” (J Med Chem, 2021)
